Peptide text beside a SMILES is read from it. * marks the point of attachment. X1 = O=C(O)CN1CCN(CC(=O)O)CCN(CC(=O)NCCCn2cc(COCC(COCc3cn(CCCNC(=O)CN4CCN(CC(=O)O)CCN(CC(=O)O)CCN(CC(=O)O)CC4)nn3)(COCc3cn(CCCNC(=O)CN4CCN(CC(=O)O)CCN(CC(=O)O)CCN(CC(=O)O)CC4)nn3)NC(=O)CCN3C(=O)CC(*)C3=O)nn2)CCN(CC(=O)O)CC1
Legend:
[1] = tested on: LN-229 flank tumors; test: Dynamic quantitative T1 mapping and Gd concentration maps of flank tumors
Procedure: Representative bright-field images of GFP-positive LN-229 flank tumors for animals where 0.2 mmol Gd/kg of Optimark™, scrambled-Tris-(Gd-DOTA)3, or SBK2-Tris-(Gd-DOTA)3 was administered are presented in row 1210 in columns 1202, 1204, and 1206 respectively. GFP fluorescence images of LN-229 tumor cells for each of the three contrast agents are presented in row 1220 in columns 1202, 1204, and 1206 respectively. T2 high resolution images are presented in row 1230 in columns 1202, 1204, and 1206 respectively. T2 low-resolution images with a region of interest (ROI) illustrated by a dashed line are presented in row 1240 in columns 1202, 1204, and 1206 respectively show the tumor area used for T1 map quantification. Axial T1-weighted images of LN-229 flank tumor at baseline or pre-agent (e.g., before injection of contrast agents) are shown in row 1250. Axial T1-weighted images of LN-229 flank tumor at time of maximum contrast (e.g., 15 minutes) following intravenous injection are shown in row 1260.
High-resolution T2-weighted images were obtained for each mouse using a RARE (Rapid Acquisition with Relaxation Enhancement) acquisition (TR/TE=5000/40 ms, 20 slices, resolution=0.117×0.117×0.5 mm) to select the imaging slice for the dynamic T1 mapping acquisition. The dynamic T1 data were then acquired using a snapshot GRE (Gradient Recalled Echo) acquisition with inversion recovery preparation (10 inversion times [263, 775, 1287, 1799, 2311, 2823, 3335, 3847, 4359, and 4871 ms], GRE imaging readout TR/TE=4.0 ms/1.3 ms, flip angle=10 degrees, resolution=0.234×0.234×1 mm, Field of View (FOV)=30×30 mm, and 10 signal averages). The total acquisition time for each T1 mapping scan was 2.5 min. After five baseline/pre-agent T1 mapping scans, Optimark™, the targeted SBK2-Tris-(Gd-DOTA)3 agent, or the non-targeted scrambled-Tris-(Gd-DOTA)3 control was injected at a dose of 0.2 mmol of Gd/kg followed by a 50 μL flush of saline. T1 maps were then consecutively acquired every 2.5 min over 62.5 min.
The MRI data were imported into MATLAB enabling estimation of both pixel-wise T1 relaxation time maps as well as mean intra-tumoral T1 changes using an ROI analysis. The T1 maps were obtained from the T1 mapping acquisition mono-exponential models. To compare the multiple imaging agents, the pre and post-agent T1 maps were then used to calculate maps of percent change in T1, which is directly related to the concentration of each agent within the tumor. To calculate Gd concentrations, T1 relaxivity constants determined at 9.4 T were used along with T1 map values.
As the T1 maps and T2-weighted images were co-registered, the ROI analysis was performed by outlining the ROI on the T2-weighted images. The same ROI was then applied to all of the T1 maps and the average value in the ROI was calculated as a measure of tumor uptake of each imaging agent. Plots of normalized T1 values in the tumor were calculated by dividing the post-agent injection T1 maps by an average of the 5 baseline (pre-agent injection) tumor T1 values. This normalization was performed to limit the effects of variation in the pre-contrast tumor T1 values on the comparison of the molecular imaging agents.
As an imaging marker for contrast agent retention, a slope analysis was performed on the normalized T1 values. Slopes were calculated for Optimark™, scrambled-Tris-(Gd-DOTA)3, and SBK2-Tris-(Gd-DOTA)3 by using all of the mean tumor T1 values from 15 minutes to 60 minutes following agent administration. For each pair of contrast agents, normalized T1 map values at each time point, along with the slopes of post-agent T1 curves were evaluated for statistical significance using a two-tailed Student's t-test, assuming statistical significance at p<0.05.

[2] = tested on: orthotopic Gli36Δ5 glioma tumors; test: Quantitative T1 mapping of orthotopic brain tumors with Optimark; conditions: for time of peak contrast following the injection: 0.1 mmol/kg
Source text: This is because T1 mapping is a quantitative MR imaging method that yields the absolute T1 relaxation values as opposed to the relative signal intensity values in T1-weighted images.
High-resolution T2-weighted MR images were acquired to localize the tumor and enable identification of the largest cross-section of tumor on MRI.
Graph 2300 illustrates mean Gd concentrations in the tumor before and after intravenous administration of 0.1 (line 2310) or 0.2 mmol/kg (line 2320) Optimark™ in cohorts of nu/nu athymic mice bearing orthotopic glioma tumors. Data is plotted as means+/−standard error. The mean tumor Gd concentration was measured at baseline or pre-agent and after contrast agent injection was measured every 2.5 minutes for 30 minutes.

[3] = tested on: LN-229 flank tumor; format: in vivo, mice
Procedure: FIG. 8 illustrates that the SBK2 based specific molecular imaging agent improves the enhancement of LN-229 tumors. FIG. 8 illustrates representative T1-weighted axial 2D gradient images of LN-229 flank tumor-bearing mice before (pre-injection) (column 840) and at 1 minute (column 842), 5 minutes (column 844), 10 minutes (column 846), 20 minutes (column 848), and 30 minutes (column 850) after the intravenous injection of ProHance™ (row 810), scrambled Tris-(Gd-DOTA)3 (row 820), or SBK2-Tris-(Gd-DOTA)3 (row 830) at 0.1 mmol Gd/kg. FIG. 8 also illustrates axial 2D gradient images heat map overlays on the tumor to indicate contrast intensity. FIG. 8 illustrates heat maps with overlays for T1-weighted axial 2D gradient images of LN-229 flank tumor-bearing mice before (pre-injection) (column 882) and at 1 minute (column 884), 5 minutes (column 886), 10 minutes (column 888), 20 minutes (column 890), and 30 minutes (column 892) after the intravenous injection of ProHance™ (row 860), scrambled Tris-(Gd-DOTA)3 (row 870), or SBK2-Tris-(Gd-DOTA)3 (row 880) at 0.1 mmol Gd/kg.
The SBK2 based specific molecular imaging agent was developed as a diagnostic imaging tool. To function as an imaging tool, SBK2 was conjugated to a Gd chelate [SBK2-Tris-(Gd-DOTA)3] to generate an MR-detectable molecular imaging agent. The ability of SBK2-Tris-(Gd-DOTA)3 to function as a contrast agent was compared to a macrocyclic gadolinium chelate (Gadoteridol, ProHance™) and to a scrambled molecular imaging agent linked to gadolinium [scrambled Tris-(Gd-DOTA)3]. SBK2-Tris-(Gd-DOTA)3 labeled human glioma tumors with a high level of contrast persisting for two hours. […] SBK2-Tris-(Gd-DOTA)3 labeling of PTPμ extracellular fragment retained in the tumor microenvironment is a more specific MR molecular imaging agent than a nonspecific gadolinium chelate.
FIG. 9 illustrates quantitation of LN-229 flank tumor enhancement following administration of control or targeted contrast agents in xenograft mice. Graphs 900 and 910 illustrate dose-response plots of LN-229 flank tumor contrast to noise ratio (CNR) with ProHance™ or SBK2-Tris-(Gd-DOTA)3 respectively administered at 0.03 mmol Gd/kg or 0.1 mmol Gd/kg.
Data is shown as means±SEM. […] At 60 to 120 minutes post-injection, the ProHance™ cleared more rapidly than SBK2-Tris-(Gd-DOTA)3 resulting in greater than 110% increase in SBK2-Tris-(Gd-DOTA)3 tumor CNR compared with ProHance™ (P<0.001). The SBK2-Tris-(Gd-DOTA)3 tumor CNR was approximately 53% greater than the scrambled Tris-(Gd-DOTA)3 tumor CNR at 60 to 90 minutes (P<0.001).

Molecule: COCCNC(=O)CN(CCN(CCN(CC(=O)[O-])CC(=O)NCCOC)CC(=O)[O-])CC(=O)[O-].[Gd+3] [Optimark™, gadoversetamide]
- time after peak within which contrast agent concentration begins to diminish ([1]; mouse, in vivo): thirty
- time of peak enhancement in the tumors (mean normalized T1) ([2]; 0.1 mmol/kg dose): 5 min
- change in normalized T1 values ([2]; 0.1 mmol/kg dose, 5 minutes): modest decrease
- distinction between T1 value of normal brain and tumor ([2]; 0.1 mmol/kg dose, 30 minutes): no distinction
- time of peak contrast following the injection ([2]; T1-weighted FLASH images): five
- time of peak contrast following the injection ([2]; snapshot GRE images, T1 maps, Gd concentration maps): two and a half
- time of peak enhancement in the tumors (mean normalized T1) ([2]; 0.2 mmol/kg dose): 5 min
- change in normalized T1 values compared to 0.1 mmol/kg ([2]; 0.2 mmol/kg dose, 5 minutes): larger decrease
- distinction between normalized T1 values of normal brain and tumor ([2]; 0.2 mmol/kg dose, 30 minutes): weak distinction

Molecule: CC(O)CN1CCN(CC(=O)[O-])CCN(CC(=O)[O-])CCN(CC(=O)[O-])CC1.[Gd+3] (centres unmarked) [Prohance™, gadoteridol, reference compound]
- time after peak within which contrast agent concentration begins to diminish ([1]; mouse, in vivo): thirty

Molecule: CC(C)C[C@H](NC(=O)[C@@H](NC(=O)[C@H](CC(N)=O)NC(=O)[C@@H](NC(=O)[C@H](CCC(N)=O)NC(=O)[C@H](CCC(=O)O)NC(=O)[C@H](Cc1c[nH]c2ccccc12)NC(=O)[C@H](CC(N)=O)NC(=O)[C@H](Cc1ccccc1)NC(=O)[C@H](CC(=O)O)NC(=O)[C@H](CC(=O)O)NC(=O)CNC(=O)[C@H](CCC(=O)O)NC(=O)CNC(=O)[C@@H](N)CSC1CC(=O)N(CCC(=O)NC(COCc2cn(CCCNC(=O)CN3CCN(CC(=O)O)CCN(CC(=O)O)CCN(CC(=O)O)CC3)nn2)(COCc2cn(CCCNC(=O)CN3CCN(CC(=O)O)CCN(CC(=O)O)CCN(CC(=O)O)CC3)nn2)COCc2cn(CCCNC(=O)CN3CCN(CC(=O)O)CCN(CC(=O)O)CCN(CC(=O)O)CC3)nn2)C1=O)C(C)C)[C@@H](C)O)C(=O)N[C@H](C(=O)N[C@@H](CCCCN)C(=O)N1CCC[C@H]1C(=O)N[C@H](C(=O)N[C@@H](CO)C(=O)N[C@@H](CC(=O)O)C(=O)O)[C@@H](C)O)[C@@H](C)O (some centres unmarked) [SBK2-Tris-(Gd-DOTA)3] (H-C(X1)GEGDDFNWEQVNTLTKPTSD-OH; N-terminus and C-terminus assumed)
- increase in tumor CNR over scrambled Tris-(Gd-DOTA)3 or ProHance ([3]; 15 to 45 minutes post-injection, 0.1 mmol Gd/kg intravenous, P<0.001): ~55%
- tumor CNR greater than the scrambled Tris-(Gd-DOTA)3 tumor CNR ([3]; 60 to 90 minutes, 0.1 mmol Gd/kg intravenous, P<0.001): approximately 53%
- increase in tumor CNR compared with ProHance ([3]; 60 to 120 minutes post-injection, 0.1 mmol Gd/kg intravenous, P<0.001): greater than 110%
- contrast enhancement compared with ProHance alone ([3]; mouse, in vivo): significantly higher
- Gd concentration in tumor at 60 minutes ([1]; 0.2 mmol Gd/kg): remains at near peak levels
- retention judged from slope of mean tumor normalized T1 values ([1]; 0.2 mmol Gd/kg, measured every 2.5 minutes for 62.5 minutes): highest retention
- distribution of T1 changes in the tumor ([1]; 30 minutes and 60 minutes, larger tumors): uniformly distributed throughout the tumor
- time the agent remains in the tumor ([1]; compared with non-specific molecular imaging agents): 1 h
- non-specific uptake compared with scrambled-Tris-(Gd-DOTA)3 ([1]; mouse, in vivo): nearly identical non-specific uptake
- concentration accumulated in tumor relative to scrambled-Tris-(Gd-DOTA)3 ([1]; tumors containing the PTPμ fragment): about twice

Molecule: C-GEGDDFNWEQVNTLTKPTSD [SBK2]
- retention time of the agent in the sample / glioblastoma ([3]; mouse, in vivo): up to two
- time contrast agent concentration remains at peak levels ([1]; mouse, in vivo): at least sixty

Molecule: C-GFTQPETGTDNDLWSVDNEK [scrambled, reference compound]
- time after peak within which contrast agent concentration begins to diminish ([1]; mouse, in vivo): thirty
